Entries after “also recorded” stand apart in the source; their conditions may differ.
Tests used:
[1] = molecular target: T1, S1PR1 (Homo sapiens, UniProt P21453); assay: Agonistic activity test on S1P receptors, FLIPR, CHO-K1/Ga15/EDG1 cells; format: cell-based; conditions: CHO-K1/Ga15/EDG1 cells, FLIPR agonist mode; read-out: S1PR1 EC50
T1 construct: host or cells: CHO-K1 co-expressing Ga15
Method: Instrument: FLIPR™ TETRA (Molecular Device)
Experimental materials: CHO-K1/Ga15/EDG1 cells constructed by GenScript autonomously.
Sample processing: Before the experiment, the working solution with the corresponding concentration was prepared by diluting with GPCR dilution buffer.
After 18-20 hours, the cell culture plat was taken out and added with dye working solution, and then the plate was placed in a 37° C./5% CO2 incubator for 1 hour, and finally equilibrated at room temperature for 15 minutes. Positive agonist working solution was added, and RFU values were detected and recorded. […] The positive agonist working fluid was added to the cell culture plate at the 21st second. […] The antagonistic mode detection program, the overall detection time of the instrument was 120 seconds, and positive antagonist working solution was added to the cell culture plate at the 21st second.
Data processing: Raw data were obtained via ScreenWorks (version 3.1) and saved as *FMD files on the Kingsray computer network system. Data were collected and analyzed using Excel and GraphPad Prism 6 software programs. For each well, the average fluorescence intensity value from 1 to 20 seconds was used as the baseline, and the maximum fluorescence intensity value from 21 to 120 seconds minus the minimum fluorescence intensity value from 21 to 120 seconds was the relative fluorescence intensity value (ARFU), from which the percentage activation or inhibition can be calculated based on the following equation.
% Activation Rate=(ΔRFUCompound-ΔRFUBackground)/(ΔRFUAgonist control-ΔRFUBackground)×100%
The data was analyzed using GraphPad Prism 6 with a four-parameter equation to calculate the EC50 and IC50 values. The four-parameter equation was as follows: y=Bottom+(Top-Bottom)/(1+10^((LogEC50/IC50-X)*HillSlope)), wherein X is the Log value of the concentration and Y was the inhibition rate.

[2] = test system: GAN diet-induced NASH mouse model; assay: In vivo anti-obesity, insulin resistance, NASH pharmacological activity test; parameters: species or system C57BL/6 mice
Excerpt: In this experiment, we investigated the effects of long-term oral administration of compound A1 on obesity, insulin resistance, hepatic lipid accumulation, inflammation and fibrosis in mice with a triple phenotype of obesity, insulin resistance and NASH induced by high fat, high cholesterol and high fructose (Gubra amylin, GAN).
Animal experiment: Male C57BL/6 mice were fed with GAN diet to induce the NASH model, and 12 weeks after modeling, the mice were randomly divided into 3 groups: low-fat diet control group (LFD, n=6), model control group (Model, n=10), and A1 group (10 mg/kg, n=10), and administered by gavage at a dose of 10 mg/kg and a volume of 10 mL/kg, once a day. During the period of administration, the food intake and body weight of animals were monitored; after 10 weeks of administration, glucose tolerance test (GTT) and insulin tolerance test (ITT) were performed; after 11 weeks of administration, fasting glucose and insulin were measured; after 12 weeks of administration, core body temperature and energy metabolism were measured; after 15 weeks of administration, body composition of mice was measured, and mice were sacrificed by dislocation after blood sampling via the posterior ocular venous plexus, and liver, subcutaneous fat, epididymal fat and brown fat were weighed, part the liver was fixed in 4% paraformaldehyde, and all tissues and serum were stored at −80° C. This experiment evaluated whether the compounds have the effect of weight loss by detecting energy metabolism, body composition, and fat weight of mice; whether the compounds have the effect of improving insulin resistance by GTT, ITT, detecting random blood glucose, fasting blood glucose and fasting insulin, and calculating HOMA-IR index; whether the compounds have the effect of […] by detecting serum liver function indexes ALT, AST, triglyceride, total cholesterol (T-CHO), LDL-C, HDL-C levels in serum, triglyceride, T-CHO, and hydroxyproline (characteristic amino acids of collagen) levels in liver, and by measuring mRNA expression levels of fatty acid ab initio synthesis and transport related genes (Srebp1c, Sed1, Fasn, Acaca, Cd36),β-oxidative metabolic pathways (Ppara, Cyp4A1,Cpt1b,Acot1,Acox1), inflammation related genes (Tnfa, Il1b, Casp1, Nlrp3, Pycard, Panx1, Cel2, Cel3) and fibrosis-related genes (Asma, Tgfb, Col1A1, Col3A1 , Col4A1 , Col4a2, Col5a2) and liver pathological changes (H&E staining, Oil Red O staining and Sirius Scarlet staining) and other indicators to evaluate whether the compounds have the effect of alleviating the disorder of lipid metabolism, inflammation and fibrosis in the pathological state of NASH.

[3] = 10 mg/kg gavage once a day, 15 weeks
[4] = 10 mg/kg gavage once a day, after 10 weeks
[5] = 10 mg/kg gavage once a day, after 11 weeks
[6] = 10 mg/kg gavage once a day, vs Model group
[7] = H&E-stained liver pathology sections, 10 mg/kg
[8] = liver, 10 mg/kg gavage once a day
[9] = overall statement, long-term administration

T1 sequence (P21453 whole entry): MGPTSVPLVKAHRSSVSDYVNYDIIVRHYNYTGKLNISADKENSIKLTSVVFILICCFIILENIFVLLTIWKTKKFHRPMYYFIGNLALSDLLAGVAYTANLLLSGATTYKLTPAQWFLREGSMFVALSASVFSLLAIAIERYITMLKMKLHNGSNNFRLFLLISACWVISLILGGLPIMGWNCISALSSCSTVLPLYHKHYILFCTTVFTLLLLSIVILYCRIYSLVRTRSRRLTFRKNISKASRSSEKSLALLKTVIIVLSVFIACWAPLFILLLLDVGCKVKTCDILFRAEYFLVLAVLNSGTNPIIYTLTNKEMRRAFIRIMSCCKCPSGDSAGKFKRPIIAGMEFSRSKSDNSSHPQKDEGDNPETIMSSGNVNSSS

CC(C)Oc1ccc(-c2nc(-c3ccc(CN4CC(C(=O)O)C4)c4ccccc34)no2)cc1C#N.Cl [Compound A1, 1-((4-(5-(3-cyano-4-isopropoxyphenyl)-1,2,4-oxadiazol-3-yl)naphthalen-1-yl)methyl) azetidine-3-carboxylic acid hydrochloric acid]
EC50 [1]: 48 nM
HOMA-IR index ([2]; 10 mg/kg gavage once a day): significantly reduced
energy metabolism and thermogenesis ([2]; 10 mg/kg gavage once a day): increasing energy metabolism and promoting thermogenesis
food intake ([2]; 10 mg/kg gavage once a day): without affecting
liver T-CHO [2, 3]: significantly reduced
liver hydroxyproline [2, 3]: significantly reduced
liver triglycerides [2, 3]: significantly reduced
liver weight [2, 3]: significantly reduced
liver-to-body ratio [2, 3]: significantly reduced
serum ALT [2, 3]: significantly reduced
serum AST [2, 3]: significantly reduced
serum HDL-C [2, 3]: significantly reduced
serum LDL-C [2, 3]: significantly reduced
serum T-CHO [2, 3]: significantly reduced
serum triglycerides [2, 3]: significantly reduced
glucose tolerance (GTT) [2, 4]: significantly improved
insulin sensitivity (ITT) [2, 4]: significantly improved
fasting glucose [2, 5]: significantly reduced
fasting insulin [2, 5]: significantly reduced
body fat content [2, 6]: reduced
body weight gain [2, 6]: significantly slowed down
NAS scores [2, 7]: significantly decreased
lipid accumulation in the liver [2, 7]: ameliorating (but not significant) effect
liver ballooning degeneration and inflammation [2, 7]: significantly alleviated
liver lipid accumulation ([2]; Oil Red O stained sections, mainly by reducing lipid droplet size, 10 mg/kg): significantly reduced
liver collagen deposition ([2]; Sirius Scarlet stained sections, 10 mg/kg): significantly reduced
mRNA expression of fatty acid oxidation-related genes (Ppara, Cyp4A1, Acot1, Acox1) [2, 8]: significantly upregulated
mRNA expression of fibrosis-related genes (Asma, Tgfb, Col1A1, Col3A1, Col5a2) [2, 8]: downregulated
mRNA expression of inflammation genes (Tnfa, Il1b, Casp1, Pycard, Ccl2, Ccl3) [2, 8]: downregulated
serological and hepatic biochemical indexes ([2]; overall statement, FIG. 3): improved
hepatic lipid metabolism disorders, inflammation and fibrosis ([2]; overall statement, FIG. 4): improved
effect on NASH [2, 9]: significant alleviating effect
insulin resistance (symptoms) [2, 9]: significantly alleviate; also recorded: alleviated
obesity (symptoms) [2, 9]: significantly alleviate; also recorded: alleviated

— patent US20240208954A1, “OXADIAZOLE COMPOUND, PREPARATION METHOD THEREFOR, PHARMACEUTICAL COMPOSITION AND USE THEREOF” (SHANGHAI INSTITUTE OF MATERIA MEDICA, CHINESE ACADEMY OF …, priority 2020, published 2024)
